This passage reports TGI and GI50 results from PubChem BioAssay (NCI).

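Following 48 hours of exposure in 96-well plates, responses at five concentrations were used to interpolate endpoints linearly. The concentration for 50% growth inhibition is given as GI50. TGI: concentration producing complete growth inhibition.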

Among the test systems are SF-268 CNS; SK-OV-3 ovarian; MOLT-4 leukemia; SF-539 CNS; NCI-H460 lung; SF-295 CNS; RPMI-8226 leukemia; M14 melanoma; HOP-92 NSCLC.
Holding throughout (assay): inhibition of tumour cell growth, NCI panel, 48 h

`COc1cc2cccc(NC(=O)c3cc(OC)c(OC)c(OC)c3Br)c2cc1OC`: the TGI stood at 59.3 µM in the experiment on SF-268 CNS; 59.2 µM with SK-OV-3 ovarian; 8.81 µM in the experiment with MOLT-4 leukemia; 46.8 µM in the experiment with SF-539 CNS; 36.5 µM in the experiment with NCI-H460 lung; 40.9 µM with SF-295 CNS. Further, the TGI with RPMI-8226 leukemia was 17 µM; in the experiment with M14 melanoma, 23.5 µM.
As for `O=C1C[C@@H]2CCCC[C@@H]2C12SCCS2`, the TGI with SF-268 CNS, in the experiment with SK-OV-3 ovarian, with MOLT-4 leukemia, in the experiment on SF-539 CNS, in the experiment with NCI-H460 lung and in the experiment on SF-295 CNS was above 100 µM each time. Moreover, the TGI in the experiment with RPMI-8226 leukemia was above 100 µM.
Turning to `c1ccc(SC(CCCCOC2CCCCO2)Sc2ccccc2)cc1` (configuration not stated), the TGI in the experiment with SF-268 CNS, with SK-OV-3 ovarian, with MOLT-4 leukemia, with SF-539 CNS, in the experiment on HOP-92 NSCLC and with NCI-H460 lung was above 100 µM in each case. For the same compound, the TGI in the experiment on SF-295 CNS, in the experiment on RPMI-8226 leukemia and with M14 melanoma was above 100 µM throughout.
As for `O=C1C(=O)c2ccccc2C(O)=C1CCCCCCCCC1CCCCC1`, the TGI with SF-268 CNS came out at 22.6 µM; with SK-OV-3 ovarian it was 54.4 µM; in the experiment on MOLT-4 leukemia it was 12.3 µM; with SF-539 CNS, 22.4 µM; in the experiment with NCI-H460 lung it was 15.9 µM; with RPMI-8226 leukemia, 56.7 µM. In the experiment on M14 melanoma, this compound gave a TGI of 26.2 µM.
On to `Cc1ccc(/C=C2\CCCC\C2=N\O)cc1`, for which the TGI in the experiment on SF-268 CNS, in the experiment on SK-OV-3 ovarian, in the experiment on SF-539 CNS, with NCI-H460 lung, in the experiment with SF-295 CNS and in the experiment with M14 melanoma was above 100 µM in each case.
As for `CSC1C(=O)c2ccccc2/C(=N/Nc2nc3ccccc3s2)C1C` (configuration not stated), the GI50 in the experiment on SF-268 CNS was 7.96 µM; in the experiment on SK-OV-3 ovarian, 35.2 µM; in the experiment on SF-539 CNS, 12.5 µM; with HOP-92 NSCLC, 7.93 µM; with NCI-H460 lung it was 11 µM; in the experiment with SF-295 CNS, 19.7 µM. Further, the GI50 with RPMI-8226 leukemia was 7.44 µM; with M14 melanoma, 14.6 µM. Moreover, the TGI is 19.1 µM in the experiment with SF-268 CNS; above 50 µM in the experiment with SK-OV-3 ovarian; 21.8 µM in the experiment with SF-539 CNS; 25.2 µM in the experiment with HOP-92 NSCLC; 25.7 µM in the experiment on NCI-H460 lung; above 50 µM in the experiment with SF-295 CNS. In addition, the results for the TGI with RPMI-8226 leukemia and in the experiment with M14 melanoma were above 50 µM and 33.1 µM, respectively.
Consider `CCOC(=O)NC(=O)c1cn(CCN2CCN(C(=O)NCCCCCCNC(=O)N3CCN(CCn4cc(C(=O)NC(=O)OCC)c(=O)n(CCN(CC)CC)c4=O)CC3)CC2)c(=O)n(CCC(CC)CC)c1=O`, for which the TGI with SF-268 CNS, in the experiment with SK-OV-3 ovarian, in the experiment with SF-539 CNS, with HOP-92 NSCLC, with NCI-H460 lung and with SF-295 CNS was above 100 µM throughout. Further, the TGI in the experiment on RPMI-8226 leukemia and in the experiment with M14 melanoma was above 100 µM each time.
As for `CC1(C)C2C/C(=C\c3ccccc3)C(=O)C1C2` (configuration not stated), the TGI in the experiment with SF-268 CNS, with SK-OV-3 ovarian, in the experiment with MOLT-4 leukemia, in the experiment on SF-539 CNS, in the experiment on HOP-92 NSCLC and in the experiment with NCI-H460 lung was above 100 µM in each case. Also, the TGI with SF-295 CNS, with RPMI-8226 leukemia and in the experiment on M14 melanoma was above 100 µM throughout.
In the case of `N#C[S-].[Au+].c1ccc(CN2[CH-]N(Cc3ccccc3)C(c3ccccc3)=C2c2ccccc2)cc1`, the GI50 was 0.431 µM in the experiment on SF-268 CNS, 0.391 µM in the experiment on SK-OV-3 ovarian, 0.629 µM in the experiment on SF-539 CNS and 0.292 µM in the experiment with HOP-92 NSCLC. Moreover, the TGI in the experiment on SF-268 CNS amounted to 2.49 µM; in the experiment on SK-OV-3 ovarian, 3.63 µM; with SF-539 CNS, 2.13 µM; in the experiment with HOP-92 NSCLC, 1 µM.
`CS/C(c1ccccc1)=[N+](/C)[O-]`: the TGI with SF-268 CNS was above 100 µM; in the experiment with SK-OV-3 ovarian it was above 100 µM; with MOLT-4 leukemia, above 100 µM; with SF-539 CNS, above 100 µM; in the experiment with HOP-92 NSCLC, above 100 µM; in the experiment on NCI-H460 lung, 99.4 µM. The TGI was above 100 µM in the experiment on SF-295 CNS, above 87.1 µM in the experiment on RPMI-8226 leukemia and above 100 µM in the experiment on M14 melanoma.
`COc1cc([N+](=O)[O-])c(OC)cc1-c1nc2sc(Cl)cn2c1/C=N/NC(=N)N/N=C/c1c(-c2cc(OC)c([N+](=O)[O-])cc2OC)nc2sc(Cl)cn12`: the GI50 is 0.387 µM in the experiment with SF-539 CNS, 2.57 µM in the experiment on NCI-H460 lung and 1.91 µM with M14 melanoma. Further, the results for the TGI in the experiment with SF-539 CNS, in the experiment with NCI-H460 lung and in the experiment with M14 melanoma were 1.8 µM, 7.13 µM and 3.36 µM, respectively.
For the compound `O=C1C[C@H]2CC3(CC[C@H]2CN1)OCCO3`, the TGI in the experiment with SF-268 CNS, in the experiment on SK-OV-3 ovarian, in the experiment with MOLT-4 leukemia, in the experiment on SF-539 CNS, with HOP-92 NSCLC and with NCI-H460 lung was above 100 µM each time. For the same compound, the TGI in the experiment with SF-295 CNS, with RPMI-8226 leukemia and in the experiment with M14 melanoma was above 100 µM in each case.
